Literature values, collected in PubChem BioAssay AID1259409 (Chemical Carcinogenesis Research Information System (CCRIS), 2018).

Tested on: rodent chemically induced tumor inhibition, incidence and multiplicity
Assay: CCRIS tumor inhibitor studies

For `CC1=C(/C=C/C(C)=C/C=C/C(C)=C/C=C/C=C(C)/C=C/C=C(C)/C=C/C2=C(C)CCCC2(C)C)C(C)(C)CCC1`, the “tumour outcome (control, treated, inhibition, significance)” value (Carcinogen: DIESEL EXHAUST PARTICLES, Dose [Inhibitor]: 0, 0.02% IN HIGH FAT DIET FOR DURATION OF STUDY (STUDY DURATION: 12 MO), Route [Inhibitor]: ORAL, Species: MOUSE, Strain/Sex: ICR/MALE, Target Tissue: Type of Lesion: LUNG: TUMOR, Dose [Carcinogen]: 0.1 MG 1/WK FOR 10 WK, Promoter: NONE USED) is listed as 13/30 (43%), 5/30 (17%), 60%, not calculated, the “tumour outcome (control, treated, inhibition, significance)” value (Carcinogen: DIESEL EXHAUST PARTICLES, Dose [Inhibitor]: 0, 0.02% IN HIGH FAT DIET FOR DURATION OF STUDY (STUDY DURATION: 12 MO), Route [Inhibitor]: ORAL, Species: MOUSE, Strain/Sex: ICR/MALE, Target Tissue: Type of Lesion: LUNG: TUMOR, Dose [Carcinogen]: 0.2 MG 1/WK FOR 10 WK, Promoter: NONE USED) is listed as 7/29 (24%), 11/29 (38%), -58%, not calculated and the “tumour outcome (control, treated, inhibition, significance)” value (Carcinogen: DIESEL EXHAUST PARTICLES, Dose [Inhibitor]: 0, 0.02% IN HIGH FAT DIET FOR DURATION OF STUDY (STUDY DURATION: 12 MO), Route [Inhibitor]: ORAL, Species: MOUSE, Strain/Sex: ICR/MALE, Target Tissue: Type of Lesion: LYMPHATIC SYSTEM: LYMPHOMA, Dose [Carcinogen]: 0.1 MG 1/WK FOR 10 WK, Promoter: NONE USED) is listed as 3/30 (10%), 9/30 (30%), -200%, not calculated. The “tumour outcome (control, treated, inhibition, significance)” value (Carcinogen: DIESEL EXHAUST PARTICLES, Dose [Inhibitor]: 0, 0.02% IN HIGH FAT DIET FOR DURATION OF STUDY (STUDY DURATION: 12 MO), Route [Inhibitor]: ORAL, Species: MOUSE, Strain/Sex: ICR/MALE, Target Tissue: Type of Lesion: LYMPHATIC SYSTEM: LYMPHOMA, Dose [Carcinogen]: 0.2 MG 1/WK FOR 10 WK, Promoter: NONE USED) was 8/29 (28%), 4/29 (14%), 50%, not calculated, the “tumour outcome (control, treated, inhibition, significance)” value (Carcinogen: DIETHYLNITROSAMINE, 55-18-5, Dose [Inhibitor]: 0, 0.005% IN DIET FOR DURATION OF STUDY (STUDY DURATION: 13 WKS), Route [Inhibitor]: ORAL, Species: HAMSTER, Strain/Sex: SYRIAN/MALE, Target Tissue: Type of Lesion: LARYNX/TRACHEA: PAPILLOMA, Dose [Carcinogen]: 100 MG/KG BW ONCE, Promoter: CIGARETTE SMOKE) was 13/28 (46%), 10/28 (36%), 22%, not significant and the “tumour outcome (control, treated, inhibition, significance)” value (Carcinogen: DIETHYLNITROSAMINE, 55-18-5, Dose [Inhibitor]: 0, 0.05% IN DIET FOR DURATION OF STUDY (STUDY DURATION: 13 WKS), Route [Inhibitor]: ORAL, Species: HAMSTER, Strain/Sex: SYRIAN/MALE, Target Tissue: Type of Lesion: LARYNX/TRACHEA: PAPILLOMA, Dose [Carcinogen]: 100 MG/KG BW ONCE, Promoter: CIGARETTE SMOKE) was 13/28 (46%), 11/29 (38%), 17%, not significant. The “tumour outcome (control, treated, inhibition, significance)” value (Carcinogen: DIETHYLNITROSAMINE, 55-18-5, Dose [Inhibitor]: 0, 0.5% IN DIET FOR 10 D THEN REDUCED TO 0.25% FOR DURATION OF STUDY (STUDY DURATION: 13 WKS), Route [Inhibitor]: ORAL, Species: HAMSTER, Strain/Sex: SYRIAN/MALE, Target Tissue: Type of Lesion: LARYNX/TRACHEA: PAPILLOMA, Dose [Carcinogen]: 100 MG/KG BW ONCE, Promoter: CIGARETTE SMOKE) was 13/28 (46%), 4/26 (15%), 67%, p< 0.05, the “tumour outcome (control, treated, inhibition, significance)” value (Carcinogen: DIETHYLNITROSAMINE, 55-18-5, Dose [Inhibitor]: 0, 1.5 MG 2/WK FOR 20 WK (STUDY DURATION: 25 WK), Route [Inhibitor]: SUBCUTANEOUS, Species: HAMSTER, Strain/Sex: SYRIAN/MALE, Target Tissue: Type of Lesion: LUNG: CARCINOMA, Dose [Carcinogen]: 17.8 MG/KG BW 2/WK FOR 20 WK, Promoter: NONE USED) was 50%, 26%, 48%, not significant and the “tumour outcome (control, treated, inhibition, significance)” value (Carcinogen: DIETHYLNITROSAMINE, 55-18-5, Dose [Inhibitor]: 0, 1.5 MG 2/WK FOR 20 WK (STUDY DURATION: 25 WK), Route [Inhibitor]: SUBCUTANEOUS, Species: HAMSTER, Strain/Sex: SYRIAN/MALE, Target Tissue: Type of Lesion: TRACHEA: PAPILLOMA, Dose [Carcinogen]: 17.8 MG/KG BW 2/WK FOR 20 WK, Promoter: NONE USED) was 95%, 100%, -5%, not significant. The “tumour outcome (control, treated, inhibition, significance)” value (Carcinogen: DIETHYLNITROSAMINE, 55-18-5, Dose [Inhibitor]: 0, 3 MG 2/WK FOR 20 WK (STUDY DURATION: 25 WK), Route [Inhibitor]: SUBCUTANEOUS, Species: HAMSTER, Strain/Sex: SYRIAN/MALE, Target Tissue: Type of Lesion: LUNG: CARCINOMA, Dose [Carcinogen]: 17.8 MG/KG BW 2/WK FOR 20 WK, Promoter: NONE USED) was 60%, 30%, 50%, not significant, the “tumour outcome (control, treated, inhibition, significance)” value (Carcinogen: DIETHYLNITROSAMINE, 55-18-5, Dose [Inhibitor]: 0, 3 MG 2/WK FOR 20 WK (STUDY DURATION: 25 WK), Route [Inhibitor]: SUBCUTANEOUS, Species: HAMSTER, Strain/Sex: SYRIAN/MALE, Target Tissue: Type of Lesion: TRACHEA: PAPILLOMA, Dose [Carcinogen]: 17.8 MG/KG BW 2/WK FOR 20 WK, Promoter: NONE USED) was 100%, 100%, 0%, not significant and the “tumour outcome (control, treated, inhibition, significance)” value (Carcinogen: DIMETHYLBENZ[A]ANTHRACENE, 57-97-6, Dose [Inhibitor]: 0.25 ML OF 0.015% AGENT IN ACETONE ADMINISTERED WITH PROMOTER 5/WK FOR 16 WK BEGINNING 3 WK POST CARCINOGEN DOSE (STUDY, Route [Inhibitor]: DERMAL, Species: MOUSE, Strain/Sex: ICR/FEMALE, Target Tissue: Type of Lesion: SKIN: PAPILLOMA, Dose [Carcinogen]: 0.125 MG IN 0.25 ML ACETONE ONCE, Promoter: PHENOL, 108-95-2) was 7/25 (28%), 6/28 (21%), 25%, not calculated. The “tumour outcome (control, treated, inhibition, significance)” value (Carcinogen: DIMETHYLBENZ[A]ANTHRACENE, 57-97-6, Dose [Inhibitor]: 100 MG/KG OF DIET IMMEDIATELY FOLLOWING CARCINOGEN DOSE FOR 22 WK (STUDY DURATION: 22 WK), Route [Inhibitor]: ORAL, Species: RAT, Strain/Sex: SPRAGUE-DAWLEY/MALE, Target Tissue: Type of Lesion: SALIVARY GLAND: TUMOR, Dose [Carcinogen]: 1 MG IN OLIVE OIL INJECTED INTO ONE SALIVARY GLAND ONCE, Promoter: NONE USED) was 3/9 (33%), 1/11 (9%), 73%, not significant, the “tumour outcome (control, treated, inhibition, significance)” value (Carcinogen: METHYL(ACETOXYMETHYL)NITROSAMINE, 56856-83-8, Dose [Inhibitor]: 0, 5.8 NMOL IN DRINKING WATER BEGINNING 2 WK PRIOR TO CARCINOGEN AND CONTINUED FOR STUDY DURATION, (STUDY DURATION: 13 M, Dose [Inhibitor]: 0, 5.8 NMOL IN DRINKING WATER BEGINNING 2 WK PRIOR TO CARCINOGEN AND CONTINUED FOR STUDY DURATION, (STUDY DURATION: 13 M, Route [Inhibitor]: ORAL, Species: HAMSTER, Strain/Sex: SYRIAN/FEMALE, Target Tissue: Type of Lesion: ORAL CAVITY: TUMOR, Dose [Carcinogen]: 2 MG/KG BW IN DISTILLED WATER TO RIGHT CHEEK POUCH 2/MO FOR 6 MO (TOTAL DOSE 24 MG/KG), Promoter: NONE USED) was 14/15 (93%), 4/15 (27%), 71%, p<0.001 and the “tumour outcome (control, treated, inhibition, significance)” value (Carcinogen: N-BUTYL-N-(4-HYDROXYBUTYL)NITROSAMINE, 3817-11-6, Dose [Inhibitor]: 0, 0.0025% IN DRINKING WATER FOR 12 WK BEGINNING POST CARCINOGEN TREATMENT (STUDY DURATION: 20 WK), Route [Inhibitor]: ORAL, Species: RAT, Strain/Sex: F344/MALE, Target Tissue: Type of Lesion: URINARY BLADDER: TRANSITIONAL CELL CARCINOMA, Dose [Carcinogen]: 0.05% IN DRINKING WATER FOR 8 WK, Promoter: NONE USED) was 10/12 (83%), 12/12 (100%), -20%, not significant. For the same compound, the “tumour outcome (control, treated, inhibition, significance)” value (Carcinogen: N-BUTYL-N-(4-HYDROXYBUTYL)NITROSAMINE, 3817-11-6, Dose [Inhibitor]: 0, 0.1% IN DIET BEGINNING 5 WK PRIOR TO CARCINOGEN TREATMENT AND CONTINUING FOR DURATION OF STUDY (STUDY DURATION: 7 MO), Route [Inhibitor]: ORAL, Species: MOUSE, Strain/Sex: B6D2F1/MALE, Target Tissue: Type of Lesion: BLADDER: CARCINOMA IN SITU, Dose [Carcinogen]: 5 MG IN SALINE SOLUTION 2/WK FOR 9 WK, Promoter: NONE USED) was 7/24 (29%), 3/24 (13%), 55%, not calculated, the “tumour outcome (control, treated, inhibition, significance)” value (Carcinogen: N-BUTYL-N-(4-HYDROXYBUTYL)NITROSAMINE, 3817-11-6, Dose [Inhibitor]: 0, 0.1% IN DIET BEGINNING 5 WK PRIOR TO CARCINOGEN TREATMENT AND CONTINUING FOR DURATION OF STUDY (STUDY DURATION: 7 MO), Route [Inhibitor]: ORAL, Species: MOUSE, Strain/Sex: B6D2F1/MALE, Target Tissue: Type of Lesion: BLADDER: TRANSITIONAL CELL CARCINOMA, Dose [Carcinogen]: 5 MG IN SALINE SOLUTION 2/WK FOR 9 WK, Promoter: NONE USED) was 8/24 (33%), 5/24 (21%), 36%, not calculated and the “tumour outcome (control, treated, inhibition, significance)” value (Carcinogen: N-BUTYL-N-(4-HYDROXYBUTYL)NITROSAMINE, 3817-11-6, Dose [Inhibitor]: 0, 0.1% IN DIET BEGINNING 5 WK PRIOR TO CARCINOGEN TREATMENT AND CONTINUING FOR DURATION OF STUDY (STUDY DURATION: 7 MO), Route [Inhibitor]: ORAL, Species: MOUSE, Strain/Sex: B6D2F1/MALE, Target Tissue: Type of Lesion: BLADDER: TUMOR, Dose [Carcinogen]: 5 MG IN SALINE SOLUTION 2/WK FOR 9 WK, Promoter: NONE USED) was 15/24 (63%), 8/24 (33%), 48%, p<0.05.
